The target in one test is Recombinant human cathepsin S (CatS) (Homo sapiens, UniProt P25774). Description: Recombinant human cathepsin S (CatS) inhibition assay, fluorogenic substrate Z-Valine-Valine-Arginine-AMC.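 Further: Baculovirus-expressed CatS in pH 5.0 sodium acetate buffer with DTT and NaCl, fluorescence read each minute over 20 min, inhibition derived from rate slope.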
Recombinant human cathepsin S (CatS), sequence (P25774 115-331): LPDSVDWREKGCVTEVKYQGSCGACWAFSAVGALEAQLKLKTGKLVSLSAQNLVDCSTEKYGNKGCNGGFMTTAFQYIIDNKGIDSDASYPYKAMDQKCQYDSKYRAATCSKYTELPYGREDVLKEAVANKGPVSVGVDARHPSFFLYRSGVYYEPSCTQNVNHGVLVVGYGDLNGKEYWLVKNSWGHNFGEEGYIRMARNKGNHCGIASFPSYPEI
Details: not given
As a reminder, the IC50 is the midpoint of a concentration-inhibition curve. As for `CS(=O)(=O)N1CCc2c(c(-c3ccc(Cl)c(C#Cc4ccc(CNCc5ccc(Cl)cc5)cc4)c3)nn2CCCN2CCN(c3ccccc3)CC2)C1` [Example 180, 1-{4-[(2-Chloro-5-{5-(methylsulfonyl)-1-[3-(4-phenylpiperazin-1-yl)propyl]-4,5,6,7-tetrahydro-1H-pyrazolo[4,3-c]pyridin-3-yl}phenyl)ethynyl]phenyl}-N-[(4-chlorophenyl)methyl]methanamine], the IC50 stood at 0.02 µM.

For `CCNCc1cc(C#Cc2cc(-c3nn(CCCN4CCCCC4)c4c3CN(C(N)=O)CC4)ccc2Cl)ccc1Cl` [Example 167, 3-[4-Chloro-3-({4-chloro-3-[(ethylamino)methyl]phenyl}ethynyl)phenyl]-1-(3-piperidin-1-ylpropyl)-1,4,6,7-tetrahydro-5H-pyrazolo[4,3-c]pyridine-5-carboxamide], the IC50 was 0.03 µM.

Turning to `COC(=O)C1COCCN1CCCn1nc(-c2ccc(Cl)c(C#Cc3ccc(CNCc4ccc(Cl)cc4)cc3)c2)c2c1CCN(S(C)(=O)=O)C2` (centres unmarked) [Example 418, Methyl 4-{3-[3-(4-chloro-3-{[4-({[(4-chlorophenyl)methyl]amino}methyl)phenyl]ethynyl}phenyl)-5-(methylsulfonyl)-4,5,6,7-tetrahydro-1H-pyrazolo[4,3-c]pyridin-1-yl]propyl}morpholine-3-carboxylate], the IC50 worked out at 1.03 µM.

`CS(=O)(=O)N1CCc2c(c(-c3ccc(Cl)c(CCCNS(=O)(=O)c4ccccc4)c3)nn2CCCN2CCC(N3CCCC3=O)CC2)C1` [Example 91, N-{3-[2-Chloro-5-(5-methanesulfonyl-1-{3-[4-(2-oxo-pyrrolidin-1-yl)-piperidin-1-yl]-propyl}-4,5,6,7-tetrahydro-1H-pyrazolo[4,3-c]pyridin-3-yl)-phenyl]-propyl}-benzenesulfonamide]: the IC50 came to 0.94 µM.

In the case of `CS(=O)(=O)N1CCc2c(c(-c3ccc(Cl)c(C#Cc4ccc(CNCc5ccc(Cl)cc5)cc4)c3)nn2CCCN2CCC(NC(=O)CO)CC2)C1` [Example 356, N-(1-{3-[3-(4-Chloro-3-{[4-({[(4-chlorophenyl)methyl]amino}methyl)phenyl]ethynyl}phenyl)-5-(methylsulfonyl)-4,5,6,7-tetrahydro-1H-pyrazolo[4,3-c]pyridin-1-yl]propyl}piperidin-4-yl)-2-hydroxyacetamide], the IC50 was 0.02 µM.

`COC(=O)[C@@H](NCc1ccc(C#Cc2cc(-c3nn(CCCN4CCOCC4)c4c3CN(S(C)(=O)=O)CC4)ccc2Cl)cc1)c1ccccc1` [Example 351, Methyl (2S)-({[4-({2-chloro-5-[5-(methylsulfonyl)-1-(3-morpholin-4-ylpropyl)-4,5,6,7-tetrahydro-1H-pyrazolo[4,3-c]pyridin-3-yl]phenyl}ethynyl)phenyl]methyl}amino)(phenyl)ethanoate]: the IC50 came to 0.12 µM.

For `Cc1ccsc1CNCc1ccc(C#Cc2cc(-c3nn(CCCN4CCOC[C@@H]4C)c4c3CN(S(C)(=O)=O)CC4)ccc2Cl)cc1` [Example 431, 1-[4-({2-Chloro-5-[1-{3-[(3S)-3-methylmorpholin-4-yl]propyl}-5-(methylsulfonyl)-4,5,6,7-tetrahydro-1H-pyrazolo[4,3-c]pyridin-3-yl]phenyl}ethynyl)phenyl]-N-[(3-methyl-2-thienyl)methyl]methanamine], the IC50 worked out at 0.17 µM.

On to `C[C@H]1COCCN1C[C@H](O)Cn1nc(-c2ccc(Cl)c(C#Cc3ccc(CNCc4ccc(Cl)cc4)cc3)c2)c2c1CCN(S(C)(=O)=O)C2` [Example 265, (2S)-1-[3-(4-Chloro-3-{4-[(4-chloro-benzylamino)-methyl]-phenylethynyl}-phenyl)-5-methanesulfonyl-4,5,6,7-tetrahydro-pyrazolo[4,3-c]pyridin-1-yl]-3-((3S)-3-methyl-morpholin-4-yl)-propan-2-ol], for which the IC50 was 0.14 µM.

As for `CN(C)S(=O)(=O)NCCCc1cc(-c2nn(CCCN3CCOCC3)c3c2CN(S(C)(=O)=O)CC3)ccc1Cl` [Example 86], the IC50 was found to be 13 µM.

For `CS(=O)(=O)N1CCc2c(c(-c3ccc(Cl)c(CCc4cccc(O)c4)c3)nn2CCCN2CCOCC2)C1` [Example 56, 3-(2-{2-Chloro-5-[5-methanesulfonyl-1-(3-morpholin-4-yl-propyl)-4,5,6,7-tetrahydro-1H-pyrazolo[4,3-c]pyridin-3-yl]-phenyl}-ethyl)-phenol], the IC50 turned out to be 0.91 µM.

`CS(=O)(=O)N1CCc2c(c(-c3ccc(Cl)c(CCc4ccc(CNCc5ccc(Cl)cc5)cc4)c3)nn2CCCN2CCN(c3ccccc3)CC2)C1` [Example 395, 1-{4-[2-(2-Chloro-5-{5-(methylsulfonyl)-1-[3-(4-phenylpiperazin-1-yl)propyl]-4,5,6,7-tetrahydro-1H-pyrazolo[4,3-c]pyridin-3-yl}phenyl)ethyl]phenyl}-N-[(4-chlorophenyl)methyl]methanamine]: the IC50 came to 0.02 µM.

Consider `CN1CCc2ccc(C#Cc3cc(-c4nn(CCCN5CCN(c6ccccc6)CC5)c5c4CN(S(C)(=O)=O)CC5)ccc3Cl)cc2C1` [Example 226, 7-[(2-Chloro-5-{5-(methylsulfonyl)-1-[3-(4-phenylpiperazin-1-yl)propyl]-4,5,6,7-tetrahydro-1H-pyrazolo[4,3-c]pyridin-3-yl}phenyl)ethynyl]-2-methyl-1,2,3,4-tetrahydroisoquinoline], for which the IC50 turned out to be 0.03 µM.

In the case of `CS(=O)(=O)N1CCc2c(c(-c3ccc(Cl)c(C#Cc4cccc(CNCc5ccccc5)c4)c3)nn2CCCN2CCOCC2)C1` [Example 379, 1-[3-({2-Chloro-5-[5-(methylsulfonyl)-1-(3-morpholin-4-ylpropyl)-4,5,6,7-tetrahydro-1H-pyrazolo[4,3-c]pyridin-3-yl]phenyl}ethynyl)phenyl]-N-(phenylmethyl)methanamine], the IC50 amounted to 0.29 µM.

The test is the same for the next values; noted with them: CatS IC50.
With `CS(=O)(=O)N1CCc2c(c(-c3ccc(Cl)c(C#Cc4ccc(CNCc5ccc(Cl)cc5)cc4)c3)nn2CCCN2CCC(N3CCCC3=O)CC2)C1` [Example 328, 1-(1-{3-[3-(4-Chloro-3-{[4-({[(4-chlorophenyl)methyl]amino}methyl)phenyl]ethynyl}phenyl)-5-(methylsulfonyl)-4,5,6,7-tetrahydro-1H-pyrazolo[4,3-c]pyridin-1-yl]propyl}piperidin-4-yl)pyrrolidin-2-one], the IC50 was determined as 0.02 µM.

In the case of `CS(=O)(=O)N1CCc2c(c(-c3ccc(Cl)c(C#Cc4ccc5c(c4)CCN(C4CC4)C5)c3)nn2CCCN2CCOCC2)C1` [Example 284, 6-({2-Chloro-5-[5-(methylsulfonyl)-1-(3-morpholin-4-ylpropyl)-4,5,6,7-tetrahydro-1H-pyrazolo[4,3-c]pyridin-3-yl]phenyl}ethynyl)-2-cyclopropyl-1,2,3,4-tetrahydroisoquinoline], the IC50 stood at 0.2 µM.

As to `CC(C)(C)OC(=O)N1CCCN(CCCn2nc(-c3ccc(Cl)c(C#Cc4ccc(CNCc5ccc(Cl)cc5)cc4)c3)c3c2CCN(S(C)(=O)=O)C3)CC1` [Example 390, 1,1-Dimethylethyl 4-{3-[3-(4-chloro-3-{[4-({[(4-chlorophenyl)methyl]amino}methyl)phenyl]ethynyl}phenyl)-5-(methylsulfonyl)-4,5,6,7-tetrahydro-1H-pyrazolo[4,3-c]pyridin-1-yl]propyl}-1,4-diazepane-1-carboxylate], the IC50 was 0.15 µM.

With `Cc1ccc(C#Cc2cc(-c3nn(CCCN4CCOCC4)c4c3CN(S(C)(=O)=O)CC4)ccc2Cl)cc1` [Example 29, 3-(4-Chloro-3-p-tolylethynyl-phenyl)-5-methanesulfonyl-1-(3-morpholin-4-yl-propyl)-4,5,6,7-tetrahydro-1H-pyrazolo[4,3-c]pyridine], the IC50 is 0.28 µM.

`O=C(c1ccccn1)N1CCc2c(c(-c3ccc(Cl)c(C#Cc4ccc(Cl)cc4)c3)nn2CCCN2CCOCC2)C1` [Example 137, [3-[4-Chloro-3-(4-chloro-phenylethynyl)-phenyl]-1-(3-morpholin-4-yl-propyl)-1,4,6,7-tetrahydro-pyrazolo[4,3-c]pyridin-5-yl]-pyridin-2-yl-methanone]: the IC50 was 0.14 µM.

Turning to `C[C@H]1COCCN1CCCn1nc(-c2ccc(Cl)c(C#Cc3ccc(CNCc4ccc(Cl)cc4)cc3)c2)c2c1CCN(S(C)(=O)=O)C2` [Example 182, 1-[4-({2-Chloro-5-[1-{3-[(3S)-3-methylmorpholin-4-yl]propyl}-5-(methylsulfonyl)-4,5,6,7-tetrahydro-1H-pyrazolo[4,3-c]pyridin-3-yl]phenyl}ethynyl)phenyl]-N-[(4-chlorophenyl)methyl]methanamine], the concentration for half-maximal inhibition (IC50) was 0.08 µM.

With `NC(=O)N1CCc2c(c(-c3ccc(Cl)c(C#Cc4ccc(CNCc5ccc(Cl)cc5)cc4)c3)nn2CCCN2C[C@H]3COC[C@H]3C2)C1` [Example 170, 3-[4-Chloro-3-[(4-{[(4-chlorobenzyl)amino]methyl]phenyl)ethynyl]phenyl}-1-{3-[(3aR,6aS)-tetrahydro-1H-furo[3,4-c]pyrrol-5(3H)-yl]propyl}-1,4,6,7-tetrahydro-5H-pyrazolo[4,3-c]pyridine-5-carboxamide], the IC50 was 0.05 µM.

On to `CS(=O)(=O)N1CCc2c(c(-c3ccc(Cl)c(C#Cc4ccc5c(c4)CN[C@H](C(=O)N4CCOCC4)C5)c3)nn2CCCN2CCOCC2)C1` [Example 194, (3S)-7-({2-Chloro-5-[5-(methylsulfonyl)-1-(3-morpholin-4-ylpropyl)-4,5,6,7-tetrahydro-1H-pyrazolo[4,3-c]pyridin-3-yl]phenyl}ethynyl)-3-(morpholin-4-ylcarbonyl)-1,2,3,4-tetrahydroisoquinoline], for which the IC50 stood at 0.02 µM.

Take `CS(=O)(=O)N1CCc2c(c(-c3ccc(Cl)c(C#Cc4cccc(CNCc5ccc(Cl)cc5)c4)c3)nn2CCCN2CCOCC2)C1` [Example 438, 1-[3-({2-Chloro-5-[5-(methylsulfonyl)-1-(3-morpholin-4-ylpropyl)-4,5,6,7-tetrahydro-1H-pyrazolo[4,3-c]pyridin-3-yl]phenyl}ethynyl)phenyl]-N-[(4-chlorophenyl)methyl]methanamine]: the IC50 came to 0.72 µM.

The same test, now with this note: CatS IC50, Table 2; average of results obtained.
`CS(=O)(=O)N1CCc2c(c(-c3ccc(Cl)c(C#Cc4ccc(C(=O)O)cc4)c3)nn2CCCN2CCOCC2)C1` [Example 19, 4-{2-Chloro-5-[5-methanesulfonyl-1-(3-morpholin-4-yl-propyl)-4,5,6,7-tetrahydro-1H-pyrazolo[4,3-c]pyridin-3-yl]-phenylethynyl}-benzoic acid]: the IC50 worked out at 0.42 µM.
